Starred links: 1 amine or outer side, 2 acyl side, 3 side chain; linkers in the order of their positions; H or OH if unused. Positions of bridges follow the written chain, without caps; N, C: chain ends. Non-standard residues stand in square brackets, D forms with d. Residues, ends and D or L forms follow the SMILES beside them. X1 = CCCCC[C@H](CC(=O)[*:1])O[*:2]; GABA = NCCCC(=O)O
How the values were obtained:
[1] = Isothermal titration calorimetry, DOPC:DOPG liposomes containing MK; assay type: binding
Method: (§1) For MK and UQ binding, a 1:1 mixture of 1,2-dioleoyl-sn-glycero-3-phosphocholine (DOPC) and 1,2-dioleoyl-sn-glycero-3-phospho-rac-(1-glycerol) (DOPG) containing either 1.25 mol % MK4 or UQ10 was dissolved in chloroform. A lipid film was generated by drying this material under a stream of nitrogen followed by 2 h of vacuum drying. The resulting film was hydrated using 10 mM HEPES (pH 7.5) with 100 mM NaCl to give a final total lipid concentration of 5 mM. Using an Avanti Mini Extruder, this suspension was passed through a 100 nm polycarbonate filter 10 times. For ITC the sample cell was filled with 400 μL of 25 μM MBA prepared in 10 mM HEPES buffer. The syringe (150 μL) was loaded with a 5 mM lipid suspension with 1.25 mol % MK4 or UQ10. For lipid II binding, 10 mM DOPC containing 1 mol % lipid II was dissolved in chloroform. The resulting film was hydrated using 50 mM Tris (pH 7.5) with 100 mM NaCl and passed through a 100 nm polycarbonate filter 10 times. For ITC the sample cell was filled with 400 μL of 25 μM an MBA prepared in 50 mM Tris buffer. The syringe (150 μL) was loaded with a 10 mM DOPC suspension with 1 mol % lipid II. Data were collected by using an Auto-iTC200 (Malvern Panalytical) and processed by Affinimeter software using the “one binding site” model.

[2] = Isothermal titration calorimetry, DOPC liposomes containing lipid II; assay type: binding
Method: as §1

[3] = test system: methicillin-resistant S. aureus COL; test: Mouse peritonitis-sepsis model; settings: single subcutaneous dose 1 h after infection
Method: Female outbred Swiss Webster mice were used in all experiments. S. aureus COL was grown in Mueller-Hinton Broth at 37° C. overnight and diluted with 7% type II porcine stomach mucin supplemented with 0.2 mM FeNH4-citrate. Cultures were diluted to provide a challenge inoculum of ˜5×10^8 CFU in 0.2 mL. 0.2 mL of the challenge inoculum was administered via intraperitoneal injection.

[4] = test system: Mtb mc2 6206/mLux in J774A.1 mouse macrophages; assay type: cell-based, Mycobacterium tuberculosis
[5] = test system: Gram-positive bacteria (Bacillus subtilis, Staphylococcus aureus and Staphylococcus epidermidis); test: Antibacterial activity against Gram-positive bacteria (broth micro-dilution); assay type: cell-based
Method: (§2) All antimicrobial assays were run in 96-well microtiter plates using a broth micro-dilution method. Diluted overnight cultures were used in all assays. For yeast strains, overnight cultures were diluted 2000-fold in YPD broth. For Enterococcus faecium and Staphylococcus aureus, overnight cultures were diluted 1000- and 10,000-fold in LB broth, respectively. For Streptococcus strains, overnight cultures were diluted 5,000-fold in Brain Heart Infusion (BHI) broth. For other bacteria, overnight cultures were diluted 5,000-fold in LB broth. 100 μL of each diluted culture was mixed with 100 μL of LB broth containing a syn-BNP at 2-fold serial dilutions across a 96-well microtiter plate row. The final concentration of each compound ranged from 64 to 0.25 μg/mL. Plates were incubated at 37° C. (bacteria) or 30° C. (yeast) for 16 h. The lowest concentration that inhibited visible microbial growth was recorded as the minimum inhibition concentration (MIC). All MIC assays were done in duplicate (n=2).

[6] = test system: Mycobacterium tuberculosis
[7] = test system: Enterococcus or Streptococcus strains; test: MIC against all eight Enterococcus or Streptococcus strains; assay type: cell-based; settings: MK-producing and MK-deficient
Method: as §2

S. aureus tn:hemB = test: MIC against S. aureus hemB transposon insertion mutant; assay type: cell-based, Staphylococcus aureus
Method: All antimicrobial assays were run in 96-well microtiter plates using a broth micro-dilution method. Diluted overnight cultures were used in all assays. […] For Enterococcus faecium and Staphylococcus aureus, overnight cultures were diluted 1000- and 10,000-fold in LB broth, respectively. […] For other bacteria, overnight cultures were diluted 5,000-fold in LB broth. 100 μL of each diluted culture was mixed with 100 μL of LB broth containing a syn-BNP at 2-fold serial dilutions across a 96-well microtiter plate row. The final concentration of each compound ranged from 64 to 0.25 μg/mL. Plates were incubated at 37° C. (bacteria) or 30° C. (yeast) for 16 h. The lowest concentration that inhibited visible microbial growth was recorded as the minimum inhibition concentration (MIC). All MIC assays were done in duplicate (n=2).

Mycobacterium smegmatis = settings: reported in literature; cited from earlier work

Compound: CCCCC[C@@H]1CC(=O)N[C@@H](C(C)C)C(=O)N[C@H](CCCNC(=N)N)C(=O)N[C@@H](C(C)C)C(=O)NCC(=O)N2CCC[C@H]2C(=O)N[C@@H](CC(C)C)C(=O)N[C@H](CCCNC(=N)N)C(=O)N[C@@H](CCC(=O)O)C(=O)N[C@H](Cc2ccc(O)cc2)C(=O)N[C@H](C)C(=O)NCCCC(=O)O1 [MBA3 D-Trp-10 to D-Ala] (V[dR]VGPL[dR]E[dY][dA][GABA]; linker N-C via X1)
- ability to interact with MK [1]: completely abrogated
- lipid II binding [2]: no lipid II binding or similarly low lipid II binding affinities

Compound: CCCCC[C@@H]1CC(=O)N[C@@H](C(C)C)C(=O)N[C@H](CCCNC(=N)N)C(=O)N[C@@H](C(C)C)C(=O)N[C@@H](C)C(=O)N2CCC[C@H]2C(=O)N[C@@H](CC(C)C)C(=O)N[C@H](CCCNC(=N)N)C(=O)N[C@@H](CCC(=O)O)C(=O)N[C@H](Cc2ccc(O)cc2)C(=O)N[C@H](Cc2c[nH]c3ccccc23)C(=O)NCCCC(=O)O1 [MBA3 Gly-4 to L-Ala] (V[dR]VAPL[dR]E[dY][dW][GABA]; linker N-C via X1)
- ability to interact with MK [1]: completely abrogated

Compound: CCCCC[C@@H]1CC(=O)N[C@@H](C(C)C)C(=O)N[C@H](CCCNC(=N)N)C(=O)N[C@@H](C(C)C)C(=O)NCC(=O)N2CCC[C@H]2C(=O)N[C@@H](CC(C)C)C(=O)N[C@H](CCCNC(=N)N)C(=O)N[C@@H](CCC(=O)O)C(=O)N[C@H](Cc2ccc(O)cc2)C(=O)N[C@H](Cc2c[nH]c3ccccc23)C(=O)NCCCC(=O)O1 [MBA3, metameb] (V[dR]VGPL[dR]E[dY][dW][GABA]; linker N-C via X1)
- mortality of infected mice compared to vehicle ([3]; 5, 10 and 30 mg/kg): dramatically decreased
- minimal dose required for 100% survival [3]: 10 mg/kg
- relative potency in macrophage assay [4]: most potent
- lipid II binding [2]: no lipid II binding or similarly low lipid II binding affinities
- antibacterial activity against Gram-positive bacteria [5]: good Gram-positive antibiosis
- activity against Mtb [6]: active
- MIC ([6]; lowest MIC against MDR Mtb): ≥ 0.078 µg/mL

Compound: CCCCC[C@@H]1CC(=O)N[C@@H](C(C)C)C(=O)N[C@H](CCC(=O)O)C(=O)N[C@@H](CCCNC(=N)N)C(=O)NCC(=O)N2CCC[C@H]2C(=O)N[C@@H](CC(C)C)C(=O)N[C@H](CCC(N)=O)C(=O)N[C@@H](CCC(=O)O)C(=O)N[C@H](Cc2ccc(O)cc2)C(=O)N[C@H](Cc2c[nH]c3ccccc23)C(=O)NCCCC(=O)O1 [MBA4, alcameb] (V[dE]RGPL[dQ]E[dY][dW][GABA]; linker N-C via X1)
- antibacterial activity against Gram-positive bacteria [5]: good Gram-positive antibiosis

Compound: CN[C@H](CC(C)C)C(=O)N[C@H]1C(=O)N[C@@H](CC(N)=O)C(=O)N[C@H]2C(=O)N[C@H]3C(=O)N[C@H](C(=O)N[C@H](C(=O)O)c4cc(O)cc(O)c4-c4cc3ccc4O)[C@H](O)c3ccc(c(Cl)c3)Oc3cc2cc(c3O[C@@H]2O[C@H](CO)[C@@H](O)[C@H](O)[C@H]2O[C@H]2C[C@](C)(N)[C@H](O)[C@H](C)O2)Oc2ccc(cc2Cl)[C@H]1O [vancomycin]
- antibacterial activity [7]: active
- MIC difference between wild-type S. aureus and tn:hemB strain (S. aureus tn:hemB): no significant differences in MIC

Compound: lysobactin
- antibacterial activity [7]: active
- MIC difference between wild-type S. aureus and tn:hemB strain (S. aureus tn:hemB): no significant differences in MIC

Compound: lysocin E
- activity against Mycobacterium smegmatis (Mycobacterium smegmatis): active

Compound: nisin
- Kd ([2]; read-out: lipid II binding affinity Kd): 70 nM
- antibacterial activity [7]: active
- MIC difference between wild-type S. aureus and tn:hemB strain (S. aureus tn:hemB): no significant differences in MIC

Compound: ramoplanin
- antibacterial activity [7]: active
- MIC difference between wild-type S. aureus and tn:hemB strain (S. aureus tn:hemB): no significant differences in MIC

Source: US20250320248A1, “MENAQUINONE-BINDING COMPOUNDS AND METHODS OF USE THEREOF” (The Rockefeller University, priority 2021, published 2025)
